Tests used:
[1] = test system: ABUTH (Velvetleaf); assay: Postemergence herbicidal evaluation; format: in vivo, Abutilon theophrasti; settings: postemergence
In short: (§1)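 Compound is applied as a foliar spray to seedlings about two weeks old, formulated in equal parts acetone and water with 0.5% TWEEN 20 and delivered at 40 psi to give about 0.0156–0.500 kg per hectare. Injury is rated visually 0–9 after four to five weeks.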

[2] = test system: CHEAL (Lambsquarters, Common); assay: Postemergence herbicidal evaluation; format: in vivo, Chenopodium album; settings: postemergence
In short: as §1

[3] = test system: SETVI (Foxtail, Green); assay: Postemergence herbicidal evaluation; format: in vivo, Setaria viridis; settings: postemergence
In short: as §1

[4] = test system: GLXMAW (Soybean, Williams); assay: Postemergence herbicidal evaluation; format: in vivo, Glycine max, (L.) Merr. cv Williams; settings: postemergence
In short: as §1

[5] = test system: ORYSAT (Rice, Tebonnet); assay: Postemergence herbicidal evaluation; format: in vivo, Oryza sativa, (L.) Tebonnet; settings: postemergence
In short: as §1

[6] = test system: TRZAWR (Wheat, Winter, cv Riband); assay: Postemergence herbicidal evaluation; format: in vivo, Triticum aestivum; settings: postemergence
In short: as §1

[7] = test system: ZEAMX (Corn, Field); assay: Postemergence herbicidal evaluation; format: in vivo, Zea mays; settings: postemergence
In short: as §1

[8] = test system: AMBEL (Ragweed, Common); assay: Preemergence herbicidal evaluation; format: in vivo, Ambrosia artemisifolia; settings: rated 4-5 weeks after treatment; for AMBEL rating: preemergence, 0-9 scale
In short: (§2)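 Scores use a 0–9 visual scale covering stand, vigor, malformation, size and chlorosis relative to controls, rated four to five weeks after treatment. Before emergence, soil-planted seeds were sprayed with compound in aqueous acetone at roughly 0.0156–0.500 kg/ha and held in the greenhouse.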

[9] = test system: GALAP (Galium); assay: Preemergence herbicidal evaluation; format: in vivo, Galium aparine; settings: preemergence, rated 4-5 weeks after treatment, 0-9 scale
In short: as §2

[10] = test system: SETVI (Foxtail, Green); assay: Preemergence herbicidal evaluation; format: in vivo, Setaria viridis; settings: rated 4-5 weeks after treatment; for SETVI rating: preemergence, 0-9 scale
In short: as §2

[11] = test system: CYPIR (Rice Flatsedge); assay: Preemergence weed control under flooded paddy conditions; format: in vivo, Cyperus iria; settings: rated 3-4 weeks after treatment
In short: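 First, seeds or propagules go into the top 0.5 cm of silt loam; next, water is held 1.5 to 3 cm over the soil; then compound (50/50 acetone/water) is pipetted into it at about 0.0313 to 0.500 kg/ha; finally plants are rated visually 0-9 after three to four weeks.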

[12] = test system: ECHORC (Watergrass (Calif.)); assay: Postemergence weed control under flooded paddy conditions; format: in vivo, Echinochloa oryzoides; settings: postemergence weeds
In short: (§3)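 Injury ratings (0–9 scale covering stand, vigor, malformation, size, chlorosis and overall appearance versus control) were made three to four weeks after treatment. Test material, about 0.0313 to 0.500 kg/ha a.i. in 50/50 v/v aqueous/acetone, was added to flood water 1.5 to 3 cm deep over 3 to 5 cm weeds and 1.5 to 2.5 leaf rice.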

[13] = test system: CYPSE (Flatsedge); assay: as above; format: in vivo, Cyperus serotinus; settings: postemergence weeds
In short: as §3

[14] = test system: SAGPY (Arrowhead (Pygmaea)); assay: as above; format: in vivo, Sagittaria pygmaea; settings: postemergence weeds, 3-4 weeks after treatment
In short: as §3

[15] = Rate 0.0313 kg/ha, rated 3 to 4 weeks after treatment
[16] = Rate 0.0625 kg/ha, rated 3 to 4 weeks after treatment
[17] = Rate 0.1250 kg/ha, rated 3 to 4 weeks after treatment
[18] = Rate 0.2500 kg/ha, rated 3 to 4 weeks after treatment
[19] = rate 0.0313 kg/ha, 3-4 weeks after treatment
[20] = rate 0.0625 kg/ha, 3-4 weeks after treatment
[21] = rate 0.1250 kg/ha, 3-4 weeks after treatment
[22] = rate 0.2500 kg/ha, 3-4 weeks after treatment
[23] = rate 0.5000 kg/ha, 3-4 weeks after treatment

CCOC(=O)CN1C(=O)C(CC(=O)NO)S/C1=N/c1cc(-n2c(=O)cc(C(F)(F)F)n(C)c2=O)c(F)cc1Cl (stereo not drawn) [Compound 98, Ethyl 2-{{2-chloro-5-[3,6-dihydro-3-methyl-2,6-dioxo-4-(trifluoromethyl)-1(2H)-pyrimidinyl]-4-fluorophenyl}imino}-5-[(hydroxycarbamoyl)methyl]-4-oxo-3-thiazolidineacetate]
2.5: ORYSAT herbicidal rating ([5]; rate 0.0313 kg/ha) | ORYSAT herbicidal rating ([5]; rate 0.0625 kg/ha) | TRZAWR herbicidal rating ([6]; rate 0.0156 kg/ha) | TRZAWR herbicidal rating ([6]; rate 0.0313 kg/ha)
5.0: ZEAMX herbicidal rating ([7]; rate 0.1250 kg/ha) | AMBEL rating ([8]; 0.2500 kg/ha)
3.0: CHEAL herbicidal rating ([2]; rate 0.0625 kg/ha) | TRZAWR herbicidal rating ([6]; rate 0.0625 kg/ha) | TRZAWR herbicidal rating ([6]; rate 0.1250 kg/ha) | ZEAMX herbicidal rating ([7]; rate 0.0156 kg/ha) | AMBEL rating ([8]; 0.1250 kg/ha) | SETVI rating ([10]; 0.2500 kg/ha) | Herbicidal rating ECHORC [12, 18] | Herbicidal rating CYPSE [13, 16]
1.0: CHEAL herbicidal rating ([2]; rate 0.0313 kg/ha) | SETVI herbicidal rating ([3]; rate 0.0156 kg/ha) | SETVI herbicidal rating ([3]; rate 0.0625 kg/ha) | GALAP rating ([9]; 0.0156 kg/ha) | SETVI rating ([10]; 0.0313 kg/ha) | Herbicidal rating ECHORC [12, 17]
5.5: GLXMAW herbicidal rating ([4]; rate 0.0625 kg/ha) | GLXMAW herbicidal rating ([4]; rate 0.1250 kg/ha)
9.0: ABUTH herbicidal rating ([1]; rate 0.0625 kg/ha) | ABUTH herbicidal rating ([1]; rate 0.1250 kg/ha) | CHEAL herbicidal rating ([2]; rate 0.1250 kg/ha) | CYPIR herbicidal effect rating ([11]; 0.0313 kg/ha) | CYPIR herbicidal effect rating ([11]; 0.0625 kg/ha) | CYPIR herbicidal effect rating ([11]; 0.1250 kg/ha) | CYPIR herbicidal effect rating ([11]; 0.2500 kg/ha)
6.0: GALAP rating ([9]; 0.0625 kg/ha)
2.0: ABUTH herbicidal rating ([1]; rate 0.0156 kg/ha) | SETVI herbicidal rating ([3]; rate 0.1250 kg/ha) | ORYSAT herbicidal rating ([5]; rate 0.1250 kg/ha) | AMBEL rating ([8]; 0.0625 kg/ha) | Herbicidal rating CYPSE [13, 15]
0.0: CHEAL herbicidal rating ([2]; rate 0.0156 kg/ha) | SETVI herbicidal rating ([3]; rate 0.0313 kg/ha) | AMBEL rating ([8]; 0.0156 kg/ha) | AMBEL rating ([8]; 0.0313 kg/ha) | GALAP rating ([9]; 0.0313 kg/ha) | SETVI rating ([10]; 0.0156 kg/ha) | SETVI rating ([10]; 0.0625 kg/ha) | Herbicidal rating ECHORC [12, 15] | Herbicidal rating ECHORC [12, 16]
1.5: ORYSAT herbicidal rating ([5]; rate 0.0156 kg/ha)
4.0: ZEAMX herbicidal rating ([7]; rate 0.0313 kg/ha) | ZEAMX herbicidal rating ([7]; rate 0.0625 kg/ha) | SETVI rating ([10]; 0.1250 kg/ha) | Herbicidal rating CYPSE [13, 17] | Herbicidal rating CYPSE [13, 18]
4.5: GLXMAW herbicidal rating ([4]; rate 0.0156 kg/ha) | GLXMAW herbicidal rating ([4]; rate 0.0313 kg/ha)
7.0: ABUTH herbicidal rating ([1]; rate 0.0313 kg/ha) | AMBEL rating ([8]; 0.5000 kg/ha) | GALAP rating ([9]; 0.2500 kg/ha) | GALAP rating ([9]; 0.5000 kg/ha) | SETVI rating ([10]; 0.5000 kg/ha)

CCC1SC(=Nc2cc(N3C(=O)C4=C(CCCC4)C3=O)c(F)cc2Cl)N(C)C1=O (stereo not drawn) [Compound 6, N-{4-chloro-5-[(5-ethyl-3-methyl-4-oxo-2-thiazolidinylidene)amino]-2-fluorophenyl}-1-cyclohexene-1,2-dicarboximide]
8.0: ABUTH herbicidal rating ([1]; rate 0.0313 kg/ha) | ABUTH herbicidal rating ([1]; rate 0.0625 kg/ha)
9.0: ABUTH herbicidal rating ([1]; rate 0.1250 kg/ha) | ABUTH herbicidal rating ([1]; rate 0.2500 kg/ha) | ABUTH herbicidal rating ([1]; rate 0.5000 kg/ha) | CHEAL herbicidal rating ([2]; rate 0.5000 kg/ha)
6.0: CHEAL herbicidal rating ([2]; rate 0.2500 kg/ha) | Herbicidal rating CYPIR ([11]; 0.2500 kg/ha)
3.0: TRZAWR herbicidal rating ([6]; rate 0.0625 kg/ha) | TRZAWR herbicidal rating ([6]; rate 0.1250 kg/ha) | ZEAMX herbicidal rating ([7]; rate 0.0157 kg/ha)
2.5: ORYSAT herbicidal rating ([5]; rate 0.0157 kg/ha) | ORYSAT herbicidal rating ([5]; rate 0.0313 kg/ha) | ORYSAT herbicidal rating ([5]; rate 0.0625 kg/ha) | ORYSAT herbicidal rating ([5]; rate 0.1250 kg/ha) | ORYSAT herbicidal rating ([5]; rate 0.2500 kg/ha) | ORYSAT herbicidal rating ([5]; rate 0.5000 kg/ha) | TRZAWR herbicidal rating ([6]; rate 0.0157 kg/ha) | TRZAWR herbicidal rating ([6]; rate 0.0313 kg/ha)
1.0: Herbicidal rating ECHORC [12, 21]
0.0: CHEAL herbicidal rating ([2]; rate 0.0157 kg/ha) | CHEAL herbicidal rating ([2]; rate 0.0313 kg/ha) | SETVI herbicidal rating ([3]; rate 0.0157 kg/ha) | SETVI herbicidal rating ([3]; rate 0.0313 kg/ha) | SETVI herbicidal rating ([3]; rate 0.0625 kg/ha) | AMBEL preemergence herbicidal rating ([8]; rate 0.1250 kg/ha) | AMBEL preemergence herbicidal rating ([8]; rate 0.2500 kg/ha) | AMBEL preemergence herbicidal rating ([8]; rate 0.5000 kg/ha) | SETVI preemergence herbicidal rating ([10]; rate 0.1250 kg/ha) | Herbicidal rating CYPIR ([11]; 0.0313 kg/ha) | Herbicidal rating ECHORC [12, 19] | Herbicidal rating ECHORC [12, 20] | Herbicidal rating CYPSE [13, 19] | Herbicidal rating CYPSE [13, 20] | Herbicidal rating CYPSE [13, 21] | Herbicidal rating CYPSE [13, 22] | Herbicidal rating CYPSE [13, 23] | Herbicidal rating SAGPY ([14]; rate 0.0313 kg/ha) | Herbicidal rating SAGPY ([14]; rate 0.0625 kg/ha) | Herbicidal rating SAGPY ([14]; rate 0.1250 kg/ha) | Herbicidal rating SAGPY ([14]; rate 0.2500 kg/ha) | Herbicidal rating SAGPY ([14]; rate 0.5000 kg/ha)
2.0: CHEAL herbicidal rating ([2]; rate 0.0625 kg/ha) | SETVI herbicidal rating ([3]; rate 0.1250 kg/ha) | SETVI herbicidal rating ([3]; rate 0.2500 kg/ha) | SETVI herbicidal rating ([3]; rate 0.5000 kg/ha) | SETVI preemergence herbicidal rating ([10]; rate 0.2500 kg/ha) | Herbicidal rating CYPIR ([11]; 0.0625 kg/ha)
4.0: ZEAMX herbicidal rating ([7]; rate 0.5000 kg/ha) | Herbicidal rating CYPIR ([11]; 0.1250 kg/ha)
7.0: ABUTH herbicidal rating ([1]; rate 0.0157 kg/ha) | Herbicidal rating CYPIR ([11]; 0.5000 kg/ha)
3.5: TRZAWR herbicidal rating ([6]; rate 0.2500 kg/ha) | TRZAWR herbicidal rating ([6]; rate 0.5000 kg/ha) | ZEAMX herbicidal rating ([7]; rate 0.0313 kg/ha) | ZEAMX herbicidal rating ([7]; rate 0.0625 kg/ha) | ZEAMX herbicidal rating ([7]; rate 0.1250 kg/ha) | ZEAMX herbicidal rating ([7]; rate 0.2500 kg/ha) | Herbicidal rating ECHORC [12, 22] | Herbicidal rating ECHORC [12, 23]

— US20020137929A1, “1 - (3-heterocyclylphenyl) isothiourea, -isourea, -guanidine and -amidine herbicidal agents” (Intellectual Property Department, BASF Aktiengesellschaft, priority 1998, published 2002)
